Read-outs that look alike come from different tables or passages of the source.
Experiments:
[1] = test system: Puccinia triticina; Synonym: Puccinia recondita f sp. tritici; experiment: Wheat Brown Rust (PUCCRT) fungicidal activity on wheat seedlings; type: in vivo; details: Low Volume, 121.5 g/H
Procedure, shortened: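 Yuma wheat seedlings (first leaf emerged) were sprayed to run-off with compound in acetone/water 1:9 (110 ppm Triton X-100), and P. triticina spores were inoculated before or after treatment. Plants were kept overnight in a 22 °C dark dew room at 100% RH, then moved to a 24 °C greenhouse; % control was based on first-leaf severity (0–100%) versus untreated plants.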

[2] = test system: Mycosphaerella graminicola; Anamorph: Septoria tritici; experiment: Leaf Blotch of Wheat (SEPTTR) fungicidal activity on wheat seedlings; type: in vivo; details: Zymoseptoria tritici, Low Volume, 121.5 g/H
Procedure, shortened: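 Compounds in acetone were diluted with nine volumes of water containing 110 ppm Triton X-100, or as EC formulations with 0.1% Trycol 5941 for track spray. They were sprayed on first-leaf Yuma wheat seedlings inoculated with S. tritici before or after treatment. Plants spent 1 day dark and 2–3 days lit at 100% RH, 20 °C. Severity (0–100%) was scored once untreated plants were fully diseased; control was computed relative to untreated plants.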

[3] = 24 h, 1 Day Protectant, read-out: PUCCRT 1DP disease control
[4] = 72 h, 3 Day Curative, read-out: PUCCRT 3DC disease control
[5] = 24 h, 1 Day Protectant, read-out: SEPTTR 1DP disease control
[6] = 72 h, 3 Day Curative, read-out: SEPTTR 3DC disease control

Compound	pest or weed control at 121.5 g/ha [1, 3] [%]	pest or weed control at 121.5 g/ha [1, 4] [%]	pest or weed control at 121.5 g/ha [2, 5] [%]	pest or weed control at 121.5 g/ha [2, 6] [%]	melting point [°C]
COc1ccnc(C(=O)N[C@H](C(=O)O[C@@H](C)C(c2ccc(F)cc2)c2ccc(F)cc2)C(C)C)c1OC(C)=O [Cmpd 189]	> 80	< 80	> 80	> 80	
COc1ccnc(C(=O)N[C@@H](CC(C)C)C(=O)O[C@@H](C)C(c2ccc(F)cc2)c2ccc(F)cc2)c1OC(C)=O [Cmpd 190]	< 80		< 80	< 80	
COc1ccccc1C(c1ccccc1OC)[C@H](C)OC(=O)[C@H](C)NC(=O)c1nccc(OC)c1OCOC(C)=O [Cmpd 191]	> 80	> 80	> 80	> 80	
COc1cccc(C(c2cccc(OC)c2)[C@H](C)OC(=O)[C@H](C)NC(=O)c2nccc(OC)c2OCOC(C)=O)c1 [Cmpd 192]	> 80	> 80	> 80	> 80	
COc1ccnc(C(=O)N[C@@H](C)C(=O)O[C@@H](C)C(O)(c2ccc(Cl)cc2F)c2ccc(Cl)cc2F)c1OCOC(C)=O [Cmpd 193]	< 80		> 80	> 80	
COc1ccnc(C(=O)N[C@@H](C)C(=O)O[C@@H](C)C(c2ccc(C)c(F)c2)c2ccc(C)c(F)c2)c1OCOC(C)=O [Cmpd 194]	> 80	< 80	> 80	> 80	
COc1ccnc(C(=O)N[C@@H](C)C(=O)O[C@@H](C)C(c2ccc(C)c(Cl)c2)c2ccc(C)c(Cl)c2)c1OCOC(C)=O [Cmpd 195]	> 80	< 80	> 80	< 80	
C#Cc1ccc(C(c2ccc(C#C)cc2)[C@H](C)OC(=O)[C@H](C)NC(=O)c2nccc(OC)c2OCOC(C)=O)cc1 [Cmpd 197]	> 80	> 80	> 80	> 80	
CCc1ccc(C(c2ccc(CC)cc2)[C@H](C)OC(=O)[C@H](C)NC(=O)c2nccc(OC)c2OCOC(C)=O)cc1 [Cmpd 198]	> 80	< 80	> 80	> 80	
COc1ccnc(C(=O)N[C@@H](C)C(=O)O[C@@H](C)[C@@H](c2ccccc2)c2ccc(F)cc2)c1OCOC(C)=O [Cmpd 199]	> 80	> 80	> 80	> 80	
COc1ccnc(C(=O)N[C@@H](C)C(=O)O[C@@H](C)C(O)(c2ccc(Cl)c(Cl)c2)c2ccc(Cl)c(Cl)c2)c1OCOC(C)=O [Cmpd 201]	< 80		> 80	> 80	
COc1ccnc(C(=O)N[C@@H](C)C(=O)O[C@@H](C)C(c2ccc(Cl)c(C)c2)c2ccc(Cl)c(C)c2)c1OCOC(C)=O [Cmpd 203]	> 80	< 80	> 80	> 80	
COc1ccnc(C(=O)N[C@@H](C)C(=O)O[C@@H](C)[C@@H](c2ccccc2)c2ccc(F)cc2)c1OC(C)=O [Cmpd 204]	> 80	> 80	> 80	> 80	
COc1ccnc(C(=O)N[C@@H](C)C(=O)O[C@@H](C)C(c2ccc(Cl)c(C)c2)c2ccc(Cl)c(C)c2)c1OC(C)=O [Cmpd 206]	> 80	< 80	> 80	> 80	
COc1ccnc(C(=O)N[C@@H](C)C(=O)O[C@@H](C)C(c2ccc(F)cc2)c2ccc(F)cc2)c1OC(=O)C(C)(C)C [Cmpd 207]			> 80	> 80	52 to 65
COc1ccnc(C(=O)N[C@@H](C)C(=O)O[C@@H](C)C(c2ccc(F)cc2)c2ccc(F)cc2)c1OC(=O)C(C)C [Cmpd 208]	> 80	< 80	> 80	> 80	
COCCC(=O)Oc1c(OC)ccnc1C(=O)N[C@@H](C)C(=O)O[C@@H](C)C(c1ccc(F)cc1)c1ccc(F)cc1 [Cmpd 209]	> 80	< 80	> 80	> 80	
COc1ccnc(C(=O)N[C@@H](C)C(=O)O[C@@H](C)C(c2ccc(F)cc2)c2ccc(F)cc2)c1OC(=O)C1CC1 [Cmpd 210]	> 80	< 80	> 80	> 80	
COc1ccnc(C(=O)N[C@@H](C)C(=O)O[C@@H](C)C(c2ccc(F)cc2)c2ccc(F)cc2)c1OCOC(=O)C(C)C [Cmpd 211]	> 80	> 80	> 80	> 80	
CCOCC(=O)OCOc1c(OC)ccnc1C(=O)N[C@@H](C)C(=O)O[C@@H](C)C(c1ccc(F)cc1)c1ccc(F)cc1 [Cmpd 212]	> 80	> 80	> 80	> 80	
CCCCC(=O)Oc1c(OC)ccnc1C(=O)N[C@@H](C)C(=O)O[C@@H](C)C(c1ccc(F)cc1)c1ccc(F)cc1 [Cmpd 213]	< 80	< 80	> 80	> 80	
COc1ccnc(C(=O)N[C@@H](C)C(=O)O[C@@H](C)C(c2ccc(F)c(F)c2)c2ccc(F)c(F)c2)c1OC(C)=O [Cmpd 215]	> 80		> 80	> 80	
COc1ccnc(C(=O)N[C@@H](C)C(=O)O[C@@H](C)C(c2ccc(F)c(Cl)c2)c2ccc(F)c(Cl)c2)c1OC(C)=O [Cmpd 216]	> 80	< 80	> 80	< 80	
COc1ccnc(C(=O)N[C@@H](C)C(=O)O[C@@H](C)C(c2ccc(F)c(C)c2)c2ccc(F)c(C)c2)c1OC(C)=O [Cmpd 217]	> 80	< 80	> 80	> 80	
COc1ccnc(C(=O)N[C@@H](C)C(=O)O[C@@H](C)C(c2ccc(F)c(F)c2)c2ccc(F)c(F)c2)c1OCOC(C)=O [Cmpd 218]	> 80	< 80	> 80	> 80	
COc1ccnc(C(=O)N[C@@H](C)C(=O)O[C@@H](C)C(c2ccc(F)c(Cl)c2)c2ccc(F)c(Cl)c2)c1OCOC(C)=O [Cmpd 219]	> 80		> 80	> 80	
COc1ccnc(C(=O)N[C@@H](C)C(=O)O[C@@H](C)C(c2ccc(F)c(C)c2)c2ccc(F)c(C)c2)c1OCOC(C)=O [Cmpd 220]	> 80	< 80	> 80	> 80	
